Laboratory results: US6784205B2, “Compounds that modulate the activity of PTP-1B and TC-PTP” (Sunesis Pharmaceuticals, Inc., priority 2002, dated 2004)
pIC50: −log10 of the molar value.

Assays:
[1] = tested on: insulin receptor phosphorylation in CHO-IR cells; test: Insulin receptor phosphorylation in CHO-IR cells (ELISA); type: cell-based; conditions: compound added 1 hour prior to harvesting, FIG. 9
Description: This example describes an illustrative assay for quantifying the degree of insulin receptor phosphorylation in cells. Any suitable cells can be used. In this example, CHO-IR cells were grown in DMEM w/10% fetal bovine serum supplemented with penicillin and streptomycin. Cells were plated at a density of 40,000 cells per well in a 96 well plate. The following day, the medium was changed to DMEM without serum and the cells were serum starved for 16 hours. 1 hour prior to harvesting, varying concentrations of a test compound diluted in DMEM were added to the cells. Where indicated, human insulin was added to cells 10 minutes prior to harvesting. Cell were lysed in 30 mM HEPES, 150 mM NaCl, 1% triton X-100, and 0.02% sodium azide. Insulin receptor phosphorylation was quantitated in an ELISA assay as described previously (Jongsoon Lee).

[2] = molecular target: T1, human PTP-1B (Homo sapiens, UniProt P18031); test: PTP-1B IC50 determination with pNPP substrate; type: biochemical
T1 construct: A shorter cDNA, PTP-1B 298, encoding amino acid residues 1-298 was generated; made in house; host or cells: E. coli BL21 codon plus (Stratagene), pRSETc
T1 sequence (P18031 1-298): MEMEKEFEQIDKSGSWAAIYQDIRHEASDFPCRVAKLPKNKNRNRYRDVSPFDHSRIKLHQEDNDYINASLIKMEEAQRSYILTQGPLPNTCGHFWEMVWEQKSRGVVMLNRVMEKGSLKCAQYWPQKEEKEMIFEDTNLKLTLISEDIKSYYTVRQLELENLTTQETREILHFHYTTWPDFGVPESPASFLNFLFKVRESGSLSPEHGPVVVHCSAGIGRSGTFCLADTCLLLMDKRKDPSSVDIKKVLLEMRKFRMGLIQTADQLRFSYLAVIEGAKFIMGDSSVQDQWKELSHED

[3] = molecular target: tyrosine phosphatase leukocyte common antigen related protein (LAR) (Homo sapiens, UniProt P10586); test: Inhibition of LAR; type: biochemical
Sequence of tyrosine phosphatase leukocyte common antigen related protein (LAR) (P10586 30-1907): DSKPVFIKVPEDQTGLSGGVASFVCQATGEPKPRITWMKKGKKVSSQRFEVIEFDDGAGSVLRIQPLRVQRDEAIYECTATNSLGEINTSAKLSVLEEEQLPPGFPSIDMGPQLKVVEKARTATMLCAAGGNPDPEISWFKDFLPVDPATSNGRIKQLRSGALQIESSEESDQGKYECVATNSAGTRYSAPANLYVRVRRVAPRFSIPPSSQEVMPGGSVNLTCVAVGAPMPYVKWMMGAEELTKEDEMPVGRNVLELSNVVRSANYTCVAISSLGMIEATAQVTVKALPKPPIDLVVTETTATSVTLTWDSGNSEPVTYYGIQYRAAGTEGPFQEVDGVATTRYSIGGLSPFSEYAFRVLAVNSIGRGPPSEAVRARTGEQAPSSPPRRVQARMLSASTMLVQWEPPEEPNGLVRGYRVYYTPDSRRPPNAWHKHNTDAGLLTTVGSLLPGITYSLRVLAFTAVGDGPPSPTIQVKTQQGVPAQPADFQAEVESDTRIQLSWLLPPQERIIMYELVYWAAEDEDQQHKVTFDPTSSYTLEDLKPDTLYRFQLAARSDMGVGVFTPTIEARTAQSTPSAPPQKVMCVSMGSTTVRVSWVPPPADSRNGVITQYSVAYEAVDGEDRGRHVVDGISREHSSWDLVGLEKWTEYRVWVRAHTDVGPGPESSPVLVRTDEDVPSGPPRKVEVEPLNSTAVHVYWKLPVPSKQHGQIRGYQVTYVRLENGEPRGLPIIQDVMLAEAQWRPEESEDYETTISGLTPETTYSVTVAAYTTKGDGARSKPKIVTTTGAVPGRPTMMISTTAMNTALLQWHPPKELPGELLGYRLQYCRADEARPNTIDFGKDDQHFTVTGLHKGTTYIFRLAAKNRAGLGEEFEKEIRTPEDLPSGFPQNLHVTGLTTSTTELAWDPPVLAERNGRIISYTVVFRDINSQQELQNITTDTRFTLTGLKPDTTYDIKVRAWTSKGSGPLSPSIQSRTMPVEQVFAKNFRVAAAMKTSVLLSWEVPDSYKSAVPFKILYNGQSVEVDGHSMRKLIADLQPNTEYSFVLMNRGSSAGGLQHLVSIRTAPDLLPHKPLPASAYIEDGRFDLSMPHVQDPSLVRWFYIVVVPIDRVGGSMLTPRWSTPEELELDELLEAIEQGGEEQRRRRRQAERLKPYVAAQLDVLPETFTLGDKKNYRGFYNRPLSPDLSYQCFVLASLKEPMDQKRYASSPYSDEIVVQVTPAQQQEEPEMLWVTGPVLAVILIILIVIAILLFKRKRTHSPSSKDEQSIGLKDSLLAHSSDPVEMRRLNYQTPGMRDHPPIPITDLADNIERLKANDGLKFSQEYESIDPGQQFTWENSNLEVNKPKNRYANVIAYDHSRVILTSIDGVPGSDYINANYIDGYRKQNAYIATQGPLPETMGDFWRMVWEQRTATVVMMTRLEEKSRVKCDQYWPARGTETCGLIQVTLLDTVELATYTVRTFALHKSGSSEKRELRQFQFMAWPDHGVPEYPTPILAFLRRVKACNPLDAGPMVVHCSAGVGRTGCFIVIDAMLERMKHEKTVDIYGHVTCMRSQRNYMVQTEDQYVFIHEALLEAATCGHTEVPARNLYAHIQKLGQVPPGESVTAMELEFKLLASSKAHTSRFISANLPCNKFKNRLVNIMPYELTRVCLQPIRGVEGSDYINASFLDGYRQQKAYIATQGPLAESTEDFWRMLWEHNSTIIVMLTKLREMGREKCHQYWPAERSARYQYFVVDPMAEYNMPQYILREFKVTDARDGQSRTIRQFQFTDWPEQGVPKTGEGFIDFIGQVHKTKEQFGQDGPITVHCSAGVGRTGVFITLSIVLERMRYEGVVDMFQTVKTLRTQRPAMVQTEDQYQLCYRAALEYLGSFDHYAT

[4] = molecular target: T2, TC-PTP (Homo sapiens, UniProt P17706); test: Inhibition of TC-PTP; type: biochemical; conditions: read-out: IC50 against TC-PTP
T2 sequence (P17706 1-415): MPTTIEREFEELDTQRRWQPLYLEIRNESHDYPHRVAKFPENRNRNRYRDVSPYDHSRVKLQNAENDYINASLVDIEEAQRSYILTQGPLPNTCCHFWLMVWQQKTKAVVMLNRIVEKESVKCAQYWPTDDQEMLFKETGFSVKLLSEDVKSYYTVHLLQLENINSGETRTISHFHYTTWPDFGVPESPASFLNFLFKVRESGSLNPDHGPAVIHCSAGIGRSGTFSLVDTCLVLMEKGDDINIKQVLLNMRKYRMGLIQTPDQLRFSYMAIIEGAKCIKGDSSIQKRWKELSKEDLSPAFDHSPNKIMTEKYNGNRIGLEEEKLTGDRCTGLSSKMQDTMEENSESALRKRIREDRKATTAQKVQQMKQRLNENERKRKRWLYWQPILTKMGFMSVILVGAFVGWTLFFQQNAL

CCc1oc2cc(S(=O)(=O)Nc3ccc(S(N)(=O)=O)cc3)ccc2c1C(=O)c1cc(Br)c(O)c(Br)c1 [compound 5]
level of insulin receptor phosphorylation [1]: is a function of the concentration of compound 5
dependence of reaction velocity on substrate concentration ([2]; pNPP, varying concentrations of inhibitor): sigmoidal dependence
effect on Vmax with increasing inhibitor concentration ([2]; reaction velocity versus pNPP concentration, FIG. 8): decrease in Vmax
inhibition of LAR [3]: does not inhibit
pIC50 [4]: ~3.89
